The results in this text go back to PubChem BioAssay AID328 (DTP/NCI, 2004).

The test system of the assay is BDF1 mice, P388 leukemia ip, median survival T/C. Nature of the assay: NCI In Vivo Anticancer Drug Screen. Data for tumor model P388 Leukemia (intraperitoneal) in B6D2F1 (BDF1) mice. Particulars: endpoint: median survival time, higher = longer survival. The method, boiled down: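 T/C = treated-group survival ÷ vehicle-control survival; tumour transplanted into mice before dosing.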

Setting [1] is: dose: 50.0 mg/kg/injection, schedule: Q01DX009 (ip), vehicle: saline with Tween-80.
[2] abbreviates: dose: 100.0 mg/kg/injection, schedule: Q01DX009 (ip), vehicle: saline with Tween-80.
The mark [3] stands for this setting: dose: 200.0 mg/kg/injection, schedule: Q01DX009 (ip), vehicle: saline with Tween-80.
Setting [4] is: dose: 100.0 mg/kg/injection, schedule: Q04DX003 (ip), vehicle: saline with Tween-80.
Setting [5] is: dose: 200.0 mg/kg/injection, schedule: Q04DX003 (ip), vehicle: saline with Tween-80.
Setting [6] is: dose: 400.0 mg/kg/injection, schedule: Q04DX003 (ip), vehicle: saline with Tween-80.
Where [7] appears, read: dose: 12.5 mg/kg/injection, schedule: Q04DX003 (ip), vehicle: saline.
[8] abbreviates: dose: 25.0 mg/kg/injection, schedule: Q04DX003 (ip), vehicle: saline.
The mark [9] stands for this setting: dose: 50.0 mg/kg/injection, schedule: Q04DX003 (ip), vehicle: saline.
[10] abbreviates: dose: 200.0 mg/kg/injection, schedule: Q04DX003 (ip), vehicle: saline.
Setting [11] is: dose: 400.0 mg/kg/injection, schedule: Q04DX003 (ip), vehicle: saline.
Setting [12] is: dose: 100.0 mg/kg/injection, schedule: Q04DX003 (ip), vehicle: saline.

“And” between values parts separate entries of the source, which are not always exact repeats. Identical values can stand only once. Toxic doses and inconclusive results are not listed.

Turning to `CC1(C)N=C(N)N=C(N)N1c1ccc(CNC(=O)Nc2ccc(S(=O)(=O)F)cc2)c(Cl)c1`, the T/C was 176 % of control (dose: 16.5 mg/kg/injection, schedule: Q01DX009 (ip), vehicle: saline with Tween-80); 188 % of control (dose: 25.0 mg/kg/injection, schedule: Q01DX009 (ip), vehicle: saline with Tween-80); 185 % of control (dose: 37.5 mg/kg/injection, schedule: Q01DX009 (ip), vehicle: saline with Tween-80); 186 % of control (dose: 88.0 mg/kg/injection, schedule: Q04DX003 (ip), vehicle: saline with Tween-80); 157 % of control (dose: 132.0 mg/kg/injection, schedule: Q04DX003 (ip), vehicle: saline with Tween-80).
Take `O=C1CCC2(CCCC2)c2ccccc21`: the T/C was 95 % of control (dose: 25.0 mg/kg/injection, schedule: Q01DX009 (ip), vehicle: water); 97 % of control (dose: 50.0 mg/kg/injection, schedule: Q01DX009 (ip), vehicle: water); 106 % of control (dose: 100.0 mg/kg/injection, schedule: Q01DX009 (ip), vehicle: water); 103 % of control (dose: 200.0 mg/kg/injection, schedule: Q01DX009 (ip), vehicle: water); 106 % of control (dose: 400.0 mg/kg/injection, schedule: Q01DX009 (ip), vehicle: water).
For the compound `Cc1[nH]nc(-c2ccon2)c1N`, the T/C by setting is: under setting [1], 115 % of control; under setting [2], 119 % of control; under setting [3], 113 % of control.
Regarding `O=C(C(=O)c1ccc(Cl)cc1)c1ccc(Cl)cc1`, the T/C is, setting by setting: (dose: 12.5 mg/kg/injection, schedule: Q04DX003 (ip), vehicle: other) 100 % of control; (dose: 25.0 mg/kg/injection, schedule: Q04DX003 (ip), vehicle: other) 86 % of control.
Regarding `COC1CC(OS(=O)(=O)c2ccc(C)cc2)C(O)C(C)O1` (stereo not given), the T/C is 98 % of control and 97 % of control under setting [1]; 100 % of control and 109 % of control under setting [2]; 99 % of control under setting [4]; 96 % of control and 103 % of control under setting [3]; 97 % of control under setting [5]; 96 % of control under setting [6].
On to `COC(=O)[C@@H]1[C@@H](O)[C@H](OC(=O)c2cc(OC)c(OC)c(OC)c2)C[C@@H]2CN3CCc4c([nH]c5ccccc45)[C@H]3C[C@@H]21`, for which the T/C (dose: 1.56 mg/kg/injection, schedule: Q01DX009 (ip), vehicle: saline with Tween-80) was 90 % of control; the T/C (dose: 2.0 mg/kg/injection, schedule: Q01DX009 (ip), vehicle: Klucel (hydroxypropylcellulose) (HPC)) is 100 % of control; the T/C (dose: 3.13 mg/kg/injection, schedule: Q01DX009 (ip), vehicle: saline with Tween-80) is 90 % of control; the T/C (dose: 4.0 mg/kg/injection, schedule: Q01DX009 (ip), vehicle: Klucel (hydroxypropylcellulose) (HPC)) was 100 % of control; the T/C (dose: 6.25 mg/kg/injection, schedule: Q01DX009 (ip), vehicle: saline with Tween-80) was 86 % of control; the T/C (dose: 8.0 mg/kg/injection, schedule: Q01DX009 (ip), vehicle: Klucel (hydroxypropylcellulose) (HPC)) was 100 % of control. Moreover, the T/C (dose: 16.0 mg/kg/injection, schedule: Q01DX009 (ip), vehicle: Klucel (hydroxypropylcellulose) (HPC)) was 100 % of control.
As to `CSc1ccc(NC(=O)NN(c2ccccc2)C2CCS(=O)(=O)C2)cc1` (stereo not given), the T/C by setting is: under setting [1], 100 % of control; under setting [2], 102 % of control; under setting [3], 101 % of control.
On to `COc1ccc(CC2c3ccccc3CC[N+]2(C)C)cc1Oc1ccc(CC2c3ccccc3CC[N+]2(C)C)cc1` (stereo not given), for which the T/C (dose: 0.39 mg/kg/injection, schedule: Q04DX003 (ip), vehicle: saline) was 98 % of control; the T/C (dose: 0.78 mg/kg/injection, schedule: Q04DX003 (ip), vehicle: saline) was 105 % of control; the T/C (dose: 1.56 mg/kg/injection, schedule: Q04DX003 (ip), vehicle: saline with Tween-80) was 104 % of control.
Turning to `NCC=C1C2CC3CC(C2)CC1C3`, the T/C runs as follows: under setting [7], 103 % of control; under setting [8], 100 % of control; under setting [9], 100 % of control.
Regarding `N#C/C(=C\c1cc(Cl)cc(Cl)c1O)C(/C(C#N)=C/c1cc(Cl)cc(Cl)c1O)c1ccc2c(c1)OCO2` (stereo not given), the T/C by setting is: under setting [4], 91 % of control; under setting [5], 100 % of control; under setting [6], 108 % of control.
For `CCCCCCCCCCCC(=O)CCCC`, the T/C reads like this: (dose: 100.0 mg/kg/injection, schedule: Q01DX009 (ip), vehicle: other) 110 % of control; (dose: 200.0 mg/kg/injection, schedule: Q01DX009 (ip), vehicle: other) 90 % of control.
Take `Cc1ncc([N+](=O)[O-])n1CCSC(Cl)(Cl)Cl`: the T/C reads like this: under setting [10], 101 % of control; under setting [11], 111 % of control.
`COc1cc2c(c(OC)c1OC)CC1c3c(cc4c(c3-2)OCO4)CCN1C` (stereo not given): the T/C reads like this: (dose: 37.5 mg/kg/injection, schedule: Q01DX009 (ip), vehicle: Klucel (hydroxypropylcellulose) (HPC)) 98 % of control; (dose: 75.0 mg/kg/injection, schedule: Q01DX009 (ip), vehicle: Klucel (hydroxypropylcellulose) (HPC)) 102 % of control; (dose: 150.0 mg/kg/injection, schedule: Q01DX009 (ip), vehicle: Klucel (hydroxypropylcellulose) (HPC)) 124 % of control.
As for `CC(=O)OC(C(=O)NCc1ccccc1)C(OC(C)=O)C(C)OS(C)(=O)=O` (stereo not given), the T/C by setting is: under setting [1], 98 % of control; under setting [2], 106 % of control; under setting [3], 89 % of control.
Regarding `C[N+](C)(C)CCO`, the T/C was 100 % of control under setting [12], 105 % of control under setting [10] and 110 % of control under setting [11].
On to `CCCCOc1ccc(OCCCCCCCCCC[N+](C)(C)C)cc1`, for which the T/C is, setting by setting: (dose: 3.13 mg/kg/injection, schedule: Q01DX009 (ip), vehicle: Klucel (hydroxypropylcellulose) (HPC)) 112 % of control; (dose: 6.25 mg/kg/injection, schedule: Q01DX009 (ip), vehicle: Klucel (hydroxypropylcellulose) (HPC)) 106 % of control; (dose: 12.5 mg/kg/injection, schedule: Q01DX009 (ip), vehicle: Klucel (hydroxypropylcellulose) (HPC)) 105 % of control.
`CS/C(N)=N\S(=O)(=O)c1ccc(NC(C)=O)cc1`: the T/C is, setting by setting: under setting [4], 95 % of control; under setting [5], 119 % of control; under setting [6], 100 % of control.
For `Cc1nnc2sc3c(Cl)c4nn5c(C)nnc5sc4c(Cl)c3nn12`, the T/C is, setting by setting: under setting [1], 92 % of control; under setting [2], 100 % of control.
For `Nc1ncncc1-c1cccc2ccccc12`, the T/C by setting is: under setting [1], 108 % of control; under setting [2], 99 % of control; under setting [3], 108 % of control.
Regarding `N[C@H](C(=O)O)[C@@H]1CC(Cl)=NO1`, the T/C (dose: 0.39 mg/kg/injection, schedule: Q01DX009 (ip), vehicle: saline) was 150 % of control; the T/C (dose: 0.78 mg/kg/injection, schedule: Q01DX009 (ip), vehicle: saline) is 175 % of control; the T/C (dose: 1.0 mg/kg/injection, schedule: Q01DX009 (ip), vehicle: saline) was 183 % of control; the T/C (dose: 1.56 mg/kg/injection, schedule: Q01DX009 (ip), vehicle: saline) was 175 % of control; the T/C (dose: 2.0 mg/kg/injection, schedule: Q01DX009 (ip), vehicle: saline) is 193 % of control; the T/C (dose: 3.12 mg/kg/injection, schedule: Q01DX009 (ip), vehicle: saline) is 95 % of control. The T/C runs as follows: (dose: 3.12 mg/kg/injection, schedule: Q04DX003 (ip), vehicle: saline) 113 % of control; (dose: 4.0 mg/kg/injection, schedule: Q01DX009 (ip), vehicle: saline) 220 % of control; (dose: 6.25 mg/kg/injection, schedule: Q01DX009 (ip), vehicle: saline) 90 % of control; (dose: 8.0 mg/kg/injection, schedule: Q01DX009 (ip), vehicle: saline) 250 % of control; under setting [7], 174 % of control; (dose: 16.0 mg/kg/injection, schedule: Q01DX009 (ip), vehicle: saline) 118 % of control. Further, the T/C by setting is: (dose: 21.6 mg/kg/injection, schedule: Q04DX003 (ip), vehicle: saline) 169 % of control; under setting [8], 220 % of control; (dose: 32.0 mg/kg/injection, schedule: Q01DX009 (ip), vehicle: saline) 91 % of control; under setting [9], 231 % of control; (dose: 50.0 mg/kg/injection, schedule: Q04DX003 (ip), vehicle: water) 117 % of control; under setting [12], 101 % of control. The T/C reads like this: (dose: 200.0 mg/kg/injection, schedule: Q04DX003 (ip), vehicle: water) 209 % of control; (dose: 400.0 mg/kg/injection, schedule: Q04DX003 (ip), vehicle: water) 196 % of control.
In the case of `CCC(CO)NC(=O)/C=C/c1ccccc1Cl` (stereo not given), the T/C under setting [3] is 91 % of control.
